Results taken from US11634452B2, “Compounds for treating neurodegenerative disorders” (ETHNODYNE, priority 2017, dated 2023).

Legend:
[1] = system: primary rat dopaminergic neurons (TH positive neurons) injured with MPP+; assay: Neuroprotective effect following exposure to MPP+; format: cell-based
Method: This study investigated the neuroprotective effect of the Compound CR777 of example 1 on rat primary mesencephalic cultures following exposure to 1-methyl-4-phenyl pyridinium (MPP^+).
Rat dopaminergic neurons were cultured as described by Visanji et al., 2008 FASEB J. 2008; 22(7):2488-97. Briefly, the midbrains obtained from 15-day old rat embryos (Janvier Labs, France) were dissected under a microscope. The embryonic midbrains were removed and placed in ice-cold medium of Leibovitz (L15, Batch 4290114, Pan Biotech, Germany) containing 2% of Penicillin-Streptomycin (PS, Batch 1451013, Pan Biotech) and 1% of bovine serum albumin (BSA, Batch K030913, Pan Biotech). The ventral portion of the mesencephalic flexure, a region of the developing brain rich in dopaminergic neurons, was used for the cell preparations.
The midbrains were dissociated by trypsinisation for 20 min at 37° C. […] The cells were seeded in supplemented neurobasal medium at a density of 40 000 cells/well in 96 well-plates pre-coated with poly-L-lysine (Batch 3102256, Corning Biocoat) and maintained in a humidified incubator at 37° C. in 5% CO2/95% air atmosphere. Half of the medium was changed every 2 days with fresh medium.
On day 6 of culture, the medium was removed and fresh medium was added, without or with MPP+ at 4 μM diluted in control medium and let for 48 h. […]
The following conditions were assessed: (6 wells per condition) • Control (vehicle) • Compound CR777 of example 1 (1 pmol/L) • Compound CR777 of example 1 (10 pmol/L) • Compound CR777 of example 1 (100 pmol/L) • Compound CR777 of example 1 (1 nmol/L) • Compound CR777 of example 1 (10 nmol/L) • Compound CR777 of example 1 (100 nmol/L) • Compound CR777 of example 1 (1 μmol/L) • Compound CR777 of example 1 (10 μmol/L) […]
Data were expressed in percentage of control conditions (no injury, no compound=100%). All values were expressed as mean+/−SEM (standard error mean) of the 6 wells with statistical analyses on the different conditions (ANOVA followed by Dunnett's test when allowed, using GraphPad Prism software).

[2] = system: primary rat cortical neurons injured with Aβ1-42; assay: Neuroprotective effect on an in vitro model of Alzheimer disease; format: cell-based
Method: These peptides contribute to cerebrovascular lesions and are neurotoxic. This study investigated the neuroprotective effect of the plant extract of the invention on rat primary cortical cultures following exposure to Aβ1-42 in an in vitro AD model (Callizot. N., et al., 2013).
Rat cortical neurons were cultured as described in Example 6.
The cortical neurons were intoxicated with amyloid beta peptides solutions after 11 days of culture in presence of tested compound CR777.
Briefly, Aβ1-42 peptide (Batch: APN09080-1-1, Abcam, United Kingdom) was dissolved in the defined culture medium B27 mentioned above, devoid of serum, at an initial concentration of 40 μmol/L. This solution was gently agitated for 3 days at 37° C. in the dark and immediately used after being properly diluted in culture medium to the concentrations used (20 μM corresponding to 2 μM of AβO, measuring by WB, for survival, neurite network, tau phosphor and caspase 3 activation and 2.5 μM corresponding to 0.25 μM of AβO, for synapses evaluation).
CR777 was solved in DMSO at 10 mM and diluted in culture medium at different concentrations (see table below). The compound was tested on one primary cortical culture in 96 well plates (6 wells per conditions), and was pre-incubated 1 hour before Aβ1-42 application for 24 hours.
24 hours after intoxication, the cell culture supernatant was taken off and the cortical neurons were fixed by a cold solution of ethanol (95%) and acetic acid (5%) for 5 min at −20° C. • Plate 1: Immunostainning (MAP-2/Tau Phosphor)
After permeabilization with 0.1% of saponin, cells were incubated for 2 hours with a) a mouse monoclonal antibody anti phosphoT at dilution of 1/400 in PBS containing 1% fetal calf serum and 0.1% of saponin and b) a chicken polyclonal antibody anti microtubule-associated-protein 2 (MAP-2) at dilution of 1/1000 in PBS containing 1% fetal calf serum and 0.1% of saponin (this antibody stains specifically cell bodies and neurites, allowing study of neuronal cell survival and neurite network).
(§1) For each condition, 30 pictures/well (representative of ˜the all well area) were taken automatically using ImageXpress (Molecular Devices) with 20× magnification. All images were taken with the same conditions. Analysis were performed automatically by using Custom Module Editor (Molecular Devices).
The following endpoints were investigated per culture well: • The total neuron survival (MAP-2 staining), • The neurite network (MAP-2 staining) and • hyperphophorylation of T protein (pT) into neurons (pT/MAP-2). • Plate 2: Immunostainning (MAP-2/Caspase 3)
as §1, with “Devices). • The total number of caspase 3 positive neuron (overlapping caspase3/MAP-2) were investigated per culture well:” for “Devices).”
Data is expressed in percentage of control conditions (no injury, no compound=100%). All values are expressed as mean+/−SEM (standard error of the mean) from 6 wells per condition per culture. Neuro-Sys performed graphs and statistical analyses on the different conditions (ANOVA followed by Dunnett's test when allowed, using GraphPad Prism software version 5.0).

[3] = CR777 1 nM to 1 μM added 1 h before Aβ1-42 (20 μM, 24 h)
[4] = CR777 all doses (1 nM to 1 μM), Aβ1-42 20 μM, 24 h

For CC1=C(CO)C(=O)O[C@@H]([C@@H](C)[C@H]2CCC3C4C[C@H](SC[C@H](NC(=O)CC[C@@H](N)C(=O)O)C(=O)NCC(=O)O)[C@]5(O)[C@@H](O)C=CC(=O)[C@]5(C)C4CC[C@@]32C)C1 (stereo partly drawn) [CR777], the “TH positive neuron survival” value ([1]; added 1 h before MPP+ (4 μM, 48 h), all concentrations 1 pmol/L to 10 μmol/L, more particularly 10 to 100 nmol/L) was “significantly protected neurons from death”, the “neuro-protective effect on MPP+ induced injuries” value ([1]; concentrations between 10 and 100 nmol/L, MPP+ 4 μM, 48 h) was “important and significantly neuro-protective effect” and the neurite network [2, 3] was “significant protective effect”. The neuron survival [2, 3] was “significant protective effect”, the “caspase 3 activation” value [2, 4] was “decrease of caspase 3 activation” and the tau hyperphosphorylation [2, 4] was “significant decrease”.
